The record followed here is patent publication US20260137696A1, “Compositions Comprising an Inhibitor of Galectin-3” (University of Liverpool, priority 2023, published 2026).

pIC50: −log10 of the molar value. “And” between values parts separate entries of the source, which are not always exact repeats. Equal entries are not always repeated. “Also recorded” adds a separate entry of the source.

Experiment [1] relates to galectin-3 knockout (Gal3KO) PANC1 cells. Kind of experiment: Pancreatic cancer cell adhesion to basement matrix, galectin-3 knockout. The class given is cell-based, human. The settings on record: galectin-3 knockout by CRISPR/Cas9 (FIG. 16C, 16D). As to the method: (§1) Nanty-six well plates were coated with 50 μl Matrigel (1:30 diluted in PBS) at 37° C. for 1 hour. Cancer cells, pre-labelled with fluorescent die DiI at 37° C. for 20 minutes, were washed twice with PBS and resuspended into 3×10^4 cells/ml in serum-free medium. The matrix-coated 96-well plates were washed twice with PBS before introduction of […] cell suspension with different concentrations of the inhibitors or PBS/DMSO (control) for 1 hour at 37° C. The plates were washed twice with PBS before three randomly selected Field of Views (FOVs) were recorded by fluorescence microscope and number of adhesion cells were quantified by Image J.
(§2) MDAMB-231 or PANC-1 cells were seeded into 6-well plate (2×10^5 cells) and cultured at 37° C. for 24 hour. Galectin-3 CRISPR Cas9 Knockout plasmid (2 μg) and galectin-3 HDR plasmid (2 μg) was mixed with Plasmid Transfection Medium (21 μl) for 5 minutes before addition to a mixture of lipofectamine STEM Transfection Reagent (STEM00001) (1 μl) and Plasmid Transfection Medium (25 μl) for 10 minutes at room temperature. The cells in the 6-well plates were washed and introduced with the Plasmid DNA/Lipofectamine STEM Transfection Reagent complex at 37° C. for 24 hours. […] Successful co-transfection of the CRISPR/Cas9 KO Plasmid and HDR Plasmid was confirmed by expression of red fluorescence protein of the cells. […]

The test system of the next experiment is ACA19+ cells. In words: Melanoma cell adhesion to HUVECs. The class given is cell-based. The settings on record: human melanoma ACA19+ cells, various concentrations. As to the method:
(§3) Adhesion of human colon cancer SW620 cells to human umbilical vein endothelial cells (HUVECs) was assessed in the absence or presence of the compounds of Formula I and Formula II (10 μM). […] (N=2, n=2);
(§4) Adhesion of human colon cancer SW620 cells to human umbilical vein endothelial cells (HUVECs) was assessed in the absence or presence of the compounds of Formula I and Formula II (10 μM).
(§5) HUVECs (1.5×10^5 cells/ml) were seeded into 96-well plates in complete EBM-2 medium and incubated at 37° C. 5% CO2 for 48-72 hours until a monolayer was formed. Monolayer integrity was confirmed by measuring trans-endothelial electrical resistance (TEER) using a Volt Ohm Meter and only monolayers with TEER reading over 800 Ω/cm^2 were used for the assay. ZsGreen- and luciferase-transfected SW620Gal3+, SW620Gal3− or ACA19+ cells (5×10^5 cells/ml) was then added to the HUVECs without or with 10 μM of the compound of Formula I or the compound of Formula II for 30-35 min at 37° C. The cells were washed twice with PBS before lysed with PLB. The cell lysates were transferred into new wells of white-walled 96-well plates and Luciferase Assay Reagent was added. The wells were mixed well and luminescence was measured using Infinite F200 Microplate reader. The experiment was performed three times, each time in triplicates.

The target in a further experiment is T1, Galectin-3 (Homo sapiens, UniProt P17931).
T1 construct: made in house; host or cells: E. coli
T1 sequence (P17931 whole entry): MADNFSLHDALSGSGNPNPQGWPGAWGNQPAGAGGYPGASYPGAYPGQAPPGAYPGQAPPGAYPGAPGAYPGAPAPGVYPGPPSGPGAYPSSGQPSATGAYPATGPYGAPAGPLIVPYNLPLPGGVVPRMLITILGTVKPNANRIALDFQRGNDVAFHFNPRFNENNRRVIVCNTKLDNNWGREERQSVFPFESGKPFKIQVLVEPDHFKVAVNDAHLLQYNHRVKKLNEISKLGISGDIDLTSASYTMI
In words: Galectin-3 binding to its ligand asialofetuin (ASF), ELISA. The settings on record: Galectin-3 5 μg/ml, ASF 20 μg/ml, read-out: IC50, inhibition of Galectin-3 binding to ASF. How it is done: The compounds of Formula I and Formula II each inhibits Galectin-3 binding to ASF dose-dependently with IC50 1˜5 μM;
FIG. 1A and FIG. 1B show compounds of Formula I and Formula II inhibit Galectin-3 binding to its ligand asialofetuin (ASF). […] The compounds of Formula I and Formula II each inhibit Galectin-3 binding to ASF dose-dependently with IC50 1˜5 μM.
Ninety-six well ELISA plates were coated with 20 μg/ml ASF in coating buffer (1.6 g Na2CO3, 1.46 NaHCO3 in 1 L H20, pH 9.6) overnight at room temperature. The plates were washed twice with washing buffer (0.05% Tween-20 in PBS) before incubation with blocking buffer (1% BSA in PBS) for 30 min. Recombinant human Galectin-3 (5 ug/ml) was incubated without or with various concentrations of the compounds of Formula I and compounds of Formula II for 30 min before introduced to the plates for 2 hr at room temperature. The plates were washed twice with washing buffer before introduction of anti-Galectin-3 antibody (1 μg/ml) for 2 hr. The plates were washed three times with washing buffer before introduction of HRP-conjugated secondary antibody (1:5,000 dilutions) for 1 hr at room temperature. The plates were washed twice with washing buffer before developed by SigmaFAST. The reaction was stopped by addition of 4M sulphuric acid before the plates were read at 492 nm (ref 595 nm) by a microplate reader.
Background: ELISA stands for enzyme-linked immunosorbent assay.

For experiment [2], the system named is galectin-3 knockout (Gal3KO) MDA-MB-231 cells. Kind of experiment: Triple-negative breast cancer cell adhesion to basement matrix, galectin-3 knockout. The settings on record: galectin-3 knockout by CRISPR/Cas9 (FIG. 15C, 15D). The class given is cell-based, human. As to the method:
as §1, §2

For another experiment, the system named is HUVECs. Kind of experiment: Vascular cell tubule formation (angiogenesis). The settings on record: different concentrations. The class given is cell-based, human. How it is done: Vascular cell tubule formation was assessed with HUVECs in the absence or presence of different concentrations of the compounds of Formula I or Formula II.
Matrigel matrix (50 μl) was added to 96-well plates for 60 min at 37° C. to allow gel formation. HUVEC cells (1×10^5 cells/ml in 1:1 EGM/EBM2 media) was introduced to the plates without or with Galectin-3 (2 μg/ml) or different concentrations of compound inhibitors for 24 hr at 37° C. Endothelial cell tube formation was examined with Leica DMLA Laser Microscope. The total number of branching points and the sum of the lengths of tubes were calculated.

Another experiment has as its system SW620^Gal3+ cells. Kind of experiment: Cancer cell adhesion to HUVECs. The class given is cell-based, human. The settings on record: 10 μM; Galectin-3-expressing SW620^Gal3+ cells. As to the method:
as §3, §4, §5

The test system of another experiment is MDA-MB-231 cell. Kind of experiment: Triple-negative breast cancer cell adhesion to basement matrix. The settings on record: for adhesion of control (Con) MDA-MB-231 cells: non-transfected cells (FIG. 15C, 15D); for MDA-MB-231 cell adhesion to matrix: different concentrations (FIG. 15A, 15B). Type of experiment: cell-based, human. As to the method: as §1

Usually pIC50 stands for the negative decadic logarithm of the IC50, by convention in mol/L. In the case of `C[C@H]1COc2c(N3CCN(C)CC3)c(F)cc3c(=O)c(C(=O)NNc4cccc(N)c4)cn1c23` [Formula II], the “adhesion of Gal3KO PANC1 cells” value in experiment [1] is given as “lost their inhibitory effect”. For the same compound, the “ACA19+ cell adhesion to HUVEC” value in the experiment with ACA19+ cells is on record as “dose-dependent inhibition”. The negative logarithm of the IC50 (pIC50) at Galectin-3 was ~5.30 and 5.30 to 6.00. In addition, in experiment [2], the “adhesion of Gal3KO MDA-MB-231 cells” value was “lost their inhibitory effect”. Also, in the experiment with HUVECs, the “HUVEC tubule formation, tubule numbers” value is “dose-dependently inhibition” and the “HUVEC tubule formation, vascular tubule length” value is listed as “dose-dependently inhibition”. For the same compound, the “adhesion to HUVEC” value in the experiment with SW620^Gal3+ cells is on record as “significantly inhibits”. Also, in the experiment on MDA-MB-231 cell, the “adhesion of control (Con) MDA-MB-231 cells” value is recorded as “significant reduction; also recorded: significant inhibition” and the “MDA-MB-231 cell adhesion to matrix” value is given as “dose-dependent inhibition”.

With `C[C@H]1COc2c(N3CCN(C)CC3)c(F)cc3c(=O)c(C(=O)NNc4ccc(N)cc4)cn1c23` [Formula I], the “adhesion of Gal3KO PANC1 cells” value in experiment [1] is “lost their inhibitory effect”. Besides, the “ACA19+ cell adhesion to HUVEC” value in the experiment on ACA19+ cells was “dose-dependent inhibition”. Further, at Galectin-3, the pIC50 was ~6.00 and 5.30 to 6.00. Further, the “adhesion of Gal3KO MDA-MB-231 cells” value in experiment [2] is on record as “lost their inhibitory effect”. For the same compound, in the experiment on HUVECs, the “HUVEC tubule formation, tubule numbers” value is on record as “dose-dependently inhibition” and the “HUVEC tubule formation, vascular tubule length” value was “dose-dependently inhibition”. Besides, the “adhesion to HUVEC” value in the experiment with SW620^Gal3+ cells is “significantly inhibits”. Moreover, in the experiment on MDA-MB-231 cell, the “adhesion of control (Con) MDA-MB-231 cells” value is listed as “significant reduction; also recorded: significant inhibition” and the “MDA-MB-231 cell adhesion to matrix” value was “dose-dependent inhibition”.
